Results reported in ChEMBL document CHEMBL5465560, “Selectivity Literature for EUbOPEN Chemogenomic Library” (2024).

How the values were obtained:
[1] = molecular target: Serine/threonine-protein kinase B-raf (Homo sapiens) (UniProt P15056); test: Selectivity interaction (Kinase panel (Eurofins)) EUB0001564a BRAF; details: at 1 µM
[2] = molecular target: T1, Mitogen-activated protein kinase 12 (Homo sapiens) (UniProt P53778); details: at 10 µM
T1 sequence (whole entry): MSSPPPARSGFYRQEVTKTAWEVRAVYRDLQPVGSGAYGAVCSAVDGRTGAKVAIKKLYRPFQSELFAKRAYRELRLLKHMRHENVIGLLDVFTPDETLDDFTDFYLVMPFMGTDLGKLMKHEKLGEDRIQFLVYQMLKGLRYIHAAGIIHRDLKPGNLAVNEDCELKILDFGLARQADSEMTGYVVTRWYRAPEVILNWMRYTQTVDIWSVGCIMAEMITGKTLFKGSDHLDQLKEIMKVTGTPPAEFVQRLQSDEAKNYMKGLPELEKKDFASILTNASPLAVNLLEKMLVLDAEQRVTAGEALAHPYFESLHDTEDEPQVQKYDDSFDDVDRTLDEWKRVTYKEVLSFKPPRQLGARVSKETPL

[3] = molecular target: Cyclin-dependent kinase 17 (Homo sapiens) (UniProt Q00537); test: Selectivity interaction (KinomeScan (DiscoverX)) EUB0001079a CDK17; details: at 1 µM
[4] = molecular target: Serine/threonine-protein kinase MRCK beta (Homo sapiens) (UniProt Q9Y5S2); details: at 10 µM
[5] = molecular target: T2, Protein kinase C iota type (Homo sapiens) (UniProt P41743); test: Selectivity interaction (ActivX KiNativ screen (kinase selectivity in THP-1 cell lysates)) EUB0000639a PRKCI; format: subcellular; details: lysate, at 0.01 µM
T2 sequence (whole entry): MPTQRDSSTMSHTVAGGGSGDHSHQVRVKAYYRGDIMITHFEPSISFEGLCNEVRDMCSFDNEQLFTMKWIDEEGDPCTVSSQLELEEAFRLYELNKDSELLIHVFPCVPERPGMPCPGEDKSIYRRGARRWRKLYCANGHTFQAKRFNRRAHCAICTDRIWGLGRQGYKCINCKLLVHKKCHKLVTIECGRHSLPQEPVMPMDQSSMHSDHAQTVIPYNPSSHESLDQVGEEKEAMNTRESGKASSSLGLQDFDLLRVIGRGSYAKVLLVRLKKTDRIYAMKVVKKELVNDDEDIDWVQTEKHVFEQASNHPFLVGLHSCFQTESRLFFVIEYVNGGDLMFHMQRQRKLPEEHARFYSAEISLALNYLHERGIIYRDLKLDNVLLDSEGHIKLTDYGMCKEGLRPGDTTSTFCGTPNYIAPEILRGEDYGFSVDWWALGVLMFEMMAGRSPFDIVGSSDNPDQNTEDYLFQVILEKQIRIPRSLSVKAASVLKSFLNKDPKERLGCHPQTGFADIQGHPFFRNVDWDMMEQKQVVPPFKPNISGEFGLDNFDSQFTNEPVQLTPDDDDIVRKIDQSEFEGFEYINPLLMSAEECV

[6] = molecular target: Serine/threonine-protein kinase MARK1 (Homo sapiens) (UniProt Q9P0L2); test: Selectivity interaction (KinomeScan (DiscoverX)) EUB0001049a MARK1; details: at 1 µM
[7] = molecular target: Serine/threonine-protein kinase Nek7 (Homo sapiens) (UniProt Q8TDX7); test: Selectivity interaction (KinomeScan (DiscoverX)) EUB0001049a NEK7; details: at 1 µM
[8] = molecular target: Casein kinase I isoform alpha (Homo sapiens, UniProt P48729); test: Selectivity interaction (KinomeScan (DiscoverX)) EUB0000666a CSNK1A1; details: at 10 µM
[9] = molecular target: Mitogen-activated protein kinase 9 (Homo sapiens, UniProt P45984); test: Selectivity interaction (Kinase screening (Upstate/Millipore)) EUB0000604a MAPK9
[10] = molecular target: T3, Serine/threonine-protein kinase Nek1 (Homo sapiens) (UniProt Q96PY6); test: Selectivity interaction (KinomeScan (DiscoverX)) EUB0000695a NEK1; details: at 100 nM
T3 sequence (whole entry): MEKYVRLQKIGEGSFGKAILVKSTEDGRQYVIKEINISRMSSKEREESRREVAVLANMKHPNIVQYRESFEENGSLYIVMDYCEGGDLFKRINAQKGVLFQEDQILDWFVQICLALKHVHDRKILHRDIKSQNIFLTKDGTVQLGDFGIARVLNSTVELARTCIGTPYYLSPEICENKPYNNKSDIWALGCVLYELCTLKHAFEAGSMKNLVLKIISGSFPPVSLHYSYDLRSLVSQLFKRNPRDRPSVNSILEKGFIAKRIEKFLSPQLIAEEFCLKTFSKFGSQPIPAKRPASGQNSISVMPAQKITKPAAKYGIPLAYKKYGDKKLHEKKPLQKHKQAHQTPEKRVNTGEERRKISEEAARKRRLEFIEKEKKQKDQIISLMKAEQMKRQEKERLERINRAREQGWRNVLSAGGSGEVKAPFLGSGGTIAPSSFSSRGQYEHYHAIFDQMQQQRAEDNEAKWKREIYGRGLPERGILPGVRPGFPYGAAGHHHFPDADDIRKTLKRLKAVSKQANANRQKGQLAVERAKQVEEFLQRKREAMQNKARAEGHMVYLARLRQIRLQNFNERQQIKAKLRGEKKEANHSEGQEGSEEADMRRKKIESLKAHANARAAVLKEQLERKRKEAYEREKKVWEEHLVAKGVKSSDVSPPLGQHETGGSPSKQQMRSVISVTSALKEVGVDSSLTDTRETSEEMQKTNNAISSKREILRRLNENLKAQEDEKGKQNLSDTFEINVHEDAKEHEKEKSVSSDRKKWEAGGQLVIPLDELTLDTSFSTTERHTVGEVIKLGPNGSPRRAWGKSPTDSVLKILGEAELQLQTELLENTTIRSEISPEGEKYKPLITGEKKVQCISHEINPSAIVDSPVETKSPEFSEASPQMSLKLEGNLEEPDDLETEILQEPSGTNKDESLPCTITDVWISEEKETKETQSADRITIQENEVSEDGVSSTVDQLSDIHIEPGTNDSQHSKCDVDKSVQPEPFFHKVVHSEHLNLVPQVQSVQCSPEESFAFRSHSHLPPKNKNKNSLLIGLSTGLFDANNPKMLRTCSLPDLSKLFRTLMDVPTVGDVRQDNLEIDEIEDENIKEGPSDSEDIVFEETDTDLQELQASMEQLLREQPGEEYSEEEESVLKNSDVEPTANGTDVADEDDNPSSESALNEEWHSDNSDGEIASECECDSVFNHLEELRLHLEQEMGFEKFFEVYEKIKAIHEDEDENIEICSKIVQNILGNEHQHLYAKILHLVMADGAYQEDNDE

Chain of Mitogen-activated protein kinase 9 (P45984 whole entry, looked up): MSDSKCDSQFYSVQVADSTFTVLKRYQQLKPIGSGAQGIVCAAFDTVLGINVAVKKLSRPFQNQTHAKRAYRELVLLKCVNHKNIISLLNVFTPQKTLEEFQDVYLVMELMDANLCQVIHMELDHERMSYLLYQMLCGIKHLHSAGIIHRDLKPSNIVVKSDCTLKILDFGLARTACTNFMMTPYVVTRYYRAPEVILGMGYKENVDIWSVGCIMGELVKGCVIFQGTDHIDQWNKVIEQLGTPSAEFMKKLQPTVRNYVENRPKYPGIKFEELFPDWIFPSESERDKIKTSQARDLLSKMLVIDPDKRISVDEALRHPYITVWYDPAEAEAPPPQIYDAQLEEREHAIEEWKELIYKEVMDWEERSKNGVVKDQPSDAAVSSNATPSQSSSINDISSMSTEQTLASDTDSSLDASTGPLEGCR
Chain of Serine/threonine-protein kinase Nek7 (Homo sapiens) (Q8TDX7 whole entry, looked up, canonical isoform): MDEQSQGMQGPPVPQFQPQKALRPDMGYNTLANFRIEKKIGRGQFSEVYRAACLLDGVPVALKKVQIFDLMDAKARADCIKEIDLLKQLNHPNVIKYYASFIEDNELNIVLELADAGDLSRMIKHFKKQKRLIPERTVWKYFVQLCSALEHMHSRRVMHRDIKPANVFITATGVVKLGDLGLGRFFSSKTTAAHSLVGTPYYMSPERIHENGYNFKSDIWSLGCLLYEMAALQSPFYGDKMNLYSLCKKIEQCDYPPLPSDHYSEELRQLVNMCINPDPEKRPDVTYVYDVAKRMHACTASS
Chain of Casein kinase I isoform alpha (P48729 2-337 limits assumed): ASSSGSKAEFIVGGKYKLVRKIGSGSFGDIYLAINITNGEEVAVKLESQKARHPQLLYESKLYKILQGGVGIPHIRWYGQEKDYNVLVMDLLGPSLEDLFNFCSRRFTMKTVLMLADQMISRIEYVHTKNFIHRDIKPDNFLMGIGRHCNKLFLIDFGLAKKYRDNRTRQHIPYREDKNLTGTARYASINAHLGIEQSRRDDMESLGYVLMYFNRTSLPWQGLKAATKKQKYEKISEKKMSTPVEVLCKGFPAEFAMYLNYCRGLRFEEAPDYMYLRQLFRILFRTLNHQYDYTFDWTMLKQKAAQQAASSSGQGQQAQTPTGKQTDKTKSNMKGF
Chain of Serine/threonine-protein kinase MRCK beta (Homo sapiens) (Q9Y5S2 whole entry): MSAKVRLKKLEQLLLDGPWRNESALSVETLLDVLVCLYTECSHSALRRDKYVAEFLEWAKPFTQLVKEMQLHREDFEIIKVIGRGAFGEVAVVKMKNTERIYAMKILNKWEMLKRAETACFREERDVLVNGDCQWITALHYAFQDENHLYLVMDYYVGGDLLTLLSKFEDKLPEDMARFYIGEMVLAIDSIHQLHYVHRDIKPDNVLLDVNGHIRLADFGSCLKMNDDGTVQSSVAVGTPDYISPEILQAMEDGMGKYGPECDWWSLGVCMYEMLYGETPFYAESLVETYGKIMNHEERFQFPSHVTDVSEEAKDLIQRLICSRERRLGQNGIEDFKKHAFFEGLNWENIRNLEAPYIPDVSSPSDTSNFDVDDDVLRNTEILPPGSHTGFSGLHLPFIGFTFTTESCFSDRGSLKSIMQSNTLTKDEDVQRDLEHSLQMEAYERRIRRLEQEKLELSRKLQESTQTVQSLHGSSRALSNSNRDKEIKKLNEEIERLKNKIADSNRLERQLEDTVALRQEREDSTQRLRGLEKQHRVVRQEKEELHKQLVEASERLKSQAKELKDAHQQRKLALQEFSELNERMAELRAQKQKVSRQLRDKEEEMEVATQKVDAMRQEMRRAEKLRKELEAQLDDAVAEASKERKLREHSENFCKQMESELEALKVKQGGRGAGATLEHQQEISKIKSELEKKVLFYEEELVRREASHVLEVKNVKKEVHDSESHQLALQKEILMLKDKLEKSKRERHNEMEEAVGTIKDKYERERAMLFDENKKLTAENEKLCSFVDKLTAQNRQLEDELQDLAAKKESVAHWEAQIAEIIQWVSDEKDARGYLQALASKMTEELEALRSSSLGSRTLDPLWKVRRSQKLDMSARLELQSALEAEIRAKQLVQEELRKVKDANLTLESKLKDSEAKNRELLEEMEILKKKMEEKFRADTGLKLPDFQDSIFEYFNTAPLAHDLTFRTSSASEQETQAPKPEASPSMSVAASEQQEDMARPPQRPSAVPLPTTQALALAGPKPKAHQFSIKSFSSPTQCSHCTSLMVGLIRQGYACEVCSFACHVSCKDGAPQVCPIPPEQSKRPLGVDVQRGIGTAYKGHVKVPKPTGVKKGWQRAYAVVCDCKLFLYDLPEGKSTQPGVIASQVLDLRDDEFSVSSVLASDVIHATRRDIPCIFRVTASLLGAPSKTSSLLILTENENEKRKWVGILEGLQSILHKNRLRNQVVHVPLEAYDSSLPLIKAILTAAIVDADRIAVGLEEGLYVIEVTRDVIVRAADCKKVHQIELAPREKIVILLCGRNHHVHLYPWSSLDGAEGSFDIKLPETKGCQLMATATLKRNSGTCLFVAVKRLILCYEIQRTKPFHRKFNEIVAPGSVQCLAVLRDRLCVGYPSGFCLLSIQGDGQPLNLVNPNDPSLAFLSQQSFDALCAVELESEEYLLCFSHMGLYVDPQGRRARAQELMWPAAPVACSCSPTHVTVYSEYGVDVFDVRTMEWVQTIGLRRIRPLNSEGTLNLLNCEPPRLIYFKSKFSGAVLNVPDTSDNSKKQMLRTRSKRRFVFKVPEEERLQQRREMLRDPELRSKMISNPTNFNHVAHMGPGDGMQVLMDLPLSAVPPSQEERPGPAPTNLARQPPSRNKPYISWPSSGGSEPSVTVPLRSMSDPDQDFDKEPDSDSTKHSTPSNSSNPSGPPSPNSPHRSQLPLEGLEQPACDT
Chain of Serine/threonine-protein kinase MARK1 (Homo sapiens) (Q9P0L2 whole entry, looked up): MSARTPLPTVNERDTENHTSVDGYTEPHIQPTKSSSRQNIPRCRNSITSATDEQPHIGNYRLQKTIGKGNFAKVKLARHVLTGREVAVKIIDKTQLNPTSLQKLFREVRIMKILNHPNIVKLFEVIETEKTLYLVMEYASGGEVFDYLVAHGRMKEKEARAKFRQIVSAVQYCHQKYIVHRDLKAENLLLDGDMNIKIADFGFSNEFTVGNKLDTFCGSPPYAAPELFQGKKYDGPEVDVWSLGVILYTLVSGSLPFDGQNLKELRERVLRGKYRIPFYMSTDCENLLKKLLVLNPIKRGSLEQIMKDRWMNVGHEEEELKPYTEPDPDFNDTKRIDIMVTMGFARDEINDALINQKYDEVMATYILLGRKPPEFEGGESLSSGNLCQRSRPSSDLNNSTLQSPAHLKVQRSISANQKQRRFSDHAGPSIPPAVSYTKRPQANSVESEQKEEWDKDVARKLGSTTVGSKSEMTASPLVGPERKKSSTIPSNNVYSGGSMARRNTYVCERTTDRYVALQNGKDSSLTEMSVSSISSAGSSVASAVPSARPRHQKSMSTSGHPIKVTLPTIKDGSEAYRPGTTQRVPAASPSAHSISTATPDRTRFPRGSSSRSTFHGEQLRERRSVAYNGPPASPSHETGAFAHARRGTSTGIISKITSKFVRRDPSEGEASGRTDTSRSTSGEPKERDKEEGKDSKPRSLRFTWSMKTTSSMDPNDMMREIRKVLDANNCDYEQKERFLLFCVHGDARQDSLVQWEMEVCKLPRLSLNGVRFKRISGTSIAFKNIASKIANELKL
Chain of Cyclin-dependent kinase 17 (Homo sapiens) (Q00537 whole entry, looked up): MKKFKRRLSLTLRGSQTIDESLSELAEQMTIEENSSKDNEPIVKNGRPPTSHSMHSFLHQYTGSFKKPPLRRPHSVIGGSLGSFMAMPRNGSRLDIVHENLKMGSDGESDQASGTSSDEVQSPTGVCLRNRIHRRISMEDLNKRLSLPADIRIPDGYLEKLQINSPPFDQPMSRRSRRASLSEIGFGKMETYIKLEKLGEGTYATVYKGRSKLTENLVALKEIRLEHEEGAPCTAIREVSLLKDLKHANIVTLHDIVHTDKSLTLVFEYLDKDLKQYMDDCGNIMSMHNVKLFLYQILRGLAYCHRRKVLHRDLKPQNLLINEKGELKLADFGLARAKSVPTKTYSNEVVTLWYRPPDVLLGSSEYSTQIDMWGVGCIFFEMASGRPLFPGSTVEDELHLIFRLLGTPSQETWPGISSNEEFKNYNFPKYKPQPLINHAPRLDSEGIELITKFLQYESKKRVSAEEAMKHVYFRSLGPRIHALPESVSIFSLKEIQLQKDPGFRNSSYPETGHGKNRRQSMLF
Chain of Serine/threonine-protein kinase B-raf (Homo sapiens) (P15056 whole entry): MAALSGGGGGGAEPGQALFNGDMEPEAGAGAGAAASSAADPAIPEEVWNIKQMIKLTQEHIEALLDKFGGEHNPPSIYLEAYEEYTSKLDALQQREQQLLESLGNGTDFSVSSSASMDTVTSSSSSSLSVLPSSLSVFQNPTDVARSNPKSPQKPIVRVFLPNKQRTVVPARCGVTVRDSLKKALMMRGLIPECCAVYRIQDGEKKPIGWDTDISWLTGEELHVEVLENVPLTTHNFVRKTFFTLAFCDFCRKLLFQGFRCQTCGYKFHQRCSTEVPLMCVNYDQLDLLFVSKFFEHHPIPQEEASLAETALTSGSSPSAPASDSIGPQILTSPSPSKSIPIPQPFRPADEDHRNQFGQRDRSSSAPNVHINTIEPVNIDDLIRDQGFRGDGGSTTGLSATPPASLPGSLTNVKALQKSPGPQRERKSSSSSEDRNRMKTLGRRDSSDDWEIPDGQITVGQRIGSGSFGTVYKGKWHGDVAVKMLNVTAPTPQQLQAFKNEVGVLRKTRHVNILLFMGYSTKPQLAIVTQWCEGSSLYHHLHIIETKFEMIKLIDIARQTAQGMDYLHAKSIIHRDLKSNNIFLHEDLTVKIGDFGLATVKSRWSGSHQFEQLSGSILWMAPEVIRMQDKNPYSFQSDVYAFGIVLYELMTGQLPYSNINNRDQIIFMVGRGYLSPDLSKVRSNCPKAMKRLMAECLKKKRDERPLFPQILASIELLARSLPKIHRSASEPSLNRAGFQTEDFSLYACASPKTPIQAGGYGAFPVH

CC[C@@H](Nc1c(C#N)c(-c2ccc(-c3cccc(C)c3F)cc2)nc2cnccc12)C(=O)O [BAY-091]
% of inhibition [1]: 23.5%

CCN(CC)CCCCNc1ncc2cc(-c3cc(OC)cc(OC)c3)c(NC(=O)NC(C)(C)C)nc2n1
% of control [2]: 100%

Nc1cnc(N2CCc3cc(S(=O)(=O)Nc4c(F)cc(Cl)cc4F)cc(N4CCCC4=O)c32)nc1 [TP-020n]
% of control [3]: 100%

Cc1cc([C@@H](C)Nc2ccccc2C(=O)O)c2nc(N3CCOCC3)cc(=O)n2c1 [AZD-6482]
% of control [4]: 100%

CC[C@@H]1[C@H](F)C(=O)N[C@@H]1COc1nccc2cc(C(N)=O)c(OC)cc12 [ZIMLOVISERTIB]
% of inhibition [5]: -6.4%

COc1cc(Nc2nc(C)cc(-c3cnn4nc(OC)ccc34)n2)cc(C(F)(F)F)c1
% of control [6]: 98% | % of control [7]: 83%

O=C(NOC[C@H](O)CO)c1ccc(F)c(F)c1Nc1ccc(I)cc1F
% of control [8]: 100%

Cc1cnc(Nc2ccc(F)cc2Cl)nc1-c1c[nH]c(C(=O)N[C@H](CO)c2cccc(Cl)c2)c1
% of inhibition [9]: 43%

Cc1cc(F)c(C(=O)Nc2cccc(-c3nncn3C(C)C)n2)cc1-n1cnc(C2CC2)c1
% of control [10]: 100%
